The values below come from paper PMC7139703, “Thiopurine Derivative-Induced Fpg/Nei DNA Glycosylase Inhibition: Structural, Dynamic and Functional Insights” (International Journal of Molecular Sciences, 2020).

In series [1] the target is ∆hNeil1 (truncated hNeil1) (human) (UniProt Q96FI4). The experiment in a line: EMSA. Particulars: 8% DMSO, no inhibitor, named hNeil1 in the sentence, N at position 7 of strand 1 = tetrahydrofuran (THF) abasic site analog, opposite C, EMSA: 0.1 nM probe, 25 mM HEPES/NaOH pH 7.5, 150 mM NaCl, 5% glycerol, 0.1 mg/mL BSA, 4 °C, 30 min, 10% native PAGE at 4 °C. On the technique in general: Mobility shift assays separate free from complexed probe on a gel.

In another series the test system is mvNei1 (mimivirus). The experiment in a line: EMSA. Particulars: N at position 7 of strand 1 = tetrahydrofuran (THF) abasic site analog, opposite C; EMSA: 0.1 nM probe, 25 mM HEPES/NaOH pH 7.5, 150 mM NaCl, 5% glycerol, 0.1 mg/mL BSA, 8% DMSO, 4 °C, 30 min; 10% native PAGE at 4 °C.
Series [2] deals with T1, LlFpg (Lactococcus lactis) (UniProt P42371).
T1 sequence: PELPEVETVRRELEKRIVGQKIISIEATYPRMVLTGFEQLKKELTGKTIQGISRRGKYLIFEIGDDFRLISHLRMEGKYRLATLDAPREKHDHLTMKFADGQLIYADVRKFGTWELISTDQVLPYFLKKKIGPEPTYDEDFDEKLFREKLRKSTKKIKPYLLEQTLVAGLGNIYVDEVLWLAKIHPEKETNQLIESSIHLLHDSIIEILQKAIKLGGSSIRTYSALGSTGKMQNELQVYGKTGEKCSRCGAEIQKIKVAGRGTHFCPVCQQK
The experiment in a line: EMSA. The note with it: 8% DMSO, no inhibitor, complex C1 (1:1), N at position 7 of strand 1 = tetrahydrofuran (THF) abasic site analog, opposite C, EMSA: 0.1 nM probe, 25 mM HEPES/NaOH pH 7.5, 150 mM NaCl, 5% glycerol, 0.1 mg/mL BSA, 4 °C, 30 min, 10% native PAGE at 4 °C.

Series [3] deals with T2, hNeil1 (Homo sapiens, UniProt Q96FI4). The experiment in a line: EMSA, hNeil1 DNA binding to THF-containing DNA duplex. Particulars: Figure 4.
Target sequence in this assay (Q96FI4 2-290 limits assumed): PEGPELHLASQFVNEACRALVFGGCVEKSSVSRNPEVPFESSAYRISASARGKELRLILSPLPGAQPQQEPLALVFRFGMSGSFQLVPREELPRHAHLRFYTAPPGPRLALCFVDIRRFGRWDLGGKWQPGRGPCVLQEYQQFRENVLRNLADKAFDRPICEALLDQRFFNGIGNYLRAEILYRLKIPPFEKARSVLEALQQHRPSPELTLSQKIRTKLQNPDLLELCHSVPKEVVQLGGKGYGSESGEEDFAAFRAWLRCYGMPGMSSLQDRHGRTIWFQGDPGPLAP
For series [4], the target named is T2, hNeil1. As to the kind of experiment: hNeil1 DNA glycosylase/AP lyase activity assay on DHU:G 24-mer duplex. In kind it is biochemical. The arrangement: Overproduction was performed as described above for full length hNeil1; 6His (C); made in house; host or cells: E. coli Rosetta2 (DE3). Here is the method: (§1) Figure 4 Comparative analysis of the effect of 2TX and TXn on Fpg/Nei DNA glycosylases. Enzyme activities were measured as described in the Figure 1 legend using […] of a 5′-[^32P]-24-mer DNA duplex containing either an 8-oxoG opposite C for LlFpg or a […] (DHU) opposite G for hNeil1 and mvNei1. The DNA probe was incubated with the indicated protein concentration and 0.2 mM TXn compounds in the presence or absence of 1 mM dithiothreitol (DTT) and TCEP (a representative experiment is illustrated by the upper histograms). The DNA probe for EMSA was 0.1 nM of 5′-[^32P]-[…] DNA duplex containing THF with LlFpg and mvNei1 (bottom panels: gel autoradiography) with the indicated conditions and as described in ‘Materials and Methods’.
(§2) Fpg, hNeil1 and mvNei1 are bifunctional DNA glycosylases associated with concerted DNA glycosylase activity (cleavage of the N-glycosidic bond between the base lesion and the C1′ of the deoxyribose) and AP lyase activity that comprises the successive cleavage of the phosphodiester bonds at the 3′ and 5′ of the resulting abasic (AP) site, respectively (β, δ-elimination). Thus, AP sites that result from the excision of the damaged base are quantitatively converted into one nucleoside gap by these enzymes. The DNA glycosylase/AP lyase activity of each enzyme was measured by incubating 20 nM of 24-mer DNA duplexes ([OG:C] and [DHU:G] for Fpg and hNeil1/mvNei1, respectively) 5′-labeling on the damaged strand (see above) with 2 nM of Fpg, or mvNei1 for 15 min or, with 20 nM of hNeil1 for 30 min at 37 °C in 10 mM Tris-HCl, pH 7.6, 150 mM NaCl, 1 mM EDTA, 0.1 mg/mL BSA and 8% DMSO. The reaction was stopped by the addition of 1 volume of formamide loading buffer (96% formamide, 20 mM Tris/HCl pH 8.0 and 2 mM Na2EDTA), heated at 80 °C for 2 min and then analyzed by 20% Urea-PAGE, as previously described. […] Under these conditions, only 50% of the substrate is converted to the cleavage product (limiting enzyme concentration conditions). For an initial evaluation of the inhibitory effect, 40 µM of 2TX/TXn was used. The thio-compound was added to the reaction mixture before the final addition of the enzyme (competition condition). For the best identified inhibitors, a dose-response curve was generated and IC50^A determined (Figure 1 and Table 1).
Target sequence in this assay (Q96FI4 whole entry): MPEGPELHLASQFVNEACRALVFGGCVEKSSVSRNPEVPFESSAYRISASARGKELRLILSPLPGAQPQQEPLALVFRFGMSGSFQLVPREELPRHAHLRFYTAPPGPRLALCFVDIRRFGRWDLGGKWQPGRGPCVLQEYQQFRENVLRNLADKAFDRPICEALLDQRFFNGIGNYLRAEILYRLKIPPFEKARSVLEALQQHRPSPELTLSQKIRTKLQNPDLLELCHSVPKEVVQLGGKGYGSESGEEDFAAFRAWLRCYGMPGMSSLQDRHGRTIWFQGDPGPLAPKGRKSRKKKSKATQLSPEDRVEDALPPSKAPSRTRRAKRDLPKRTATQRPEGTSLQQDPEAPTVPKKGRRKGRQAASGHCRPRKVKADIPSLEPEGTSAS

Series [5] concerns the target T3, mvNei1 (Acanthamoeba polyphaga mimivirus, UniProt Q5UQ00).
T3 construct: 6His (C); made in house; host or cells: E. coli Rosetta2 (DE3)
As to the kind of experiment: mvNei1 DNA glycosylase/AP lyase activity assay on DHU:G 24-mer duplex. In kind it is biochemical. Here is the method:
as §1, §2

Series [6] deals with T3, mvNei1. The experiment in a line: EMSA, mvNei1 DNA binding to THF-containing DNA duplex. Particulars: Figure 4. The protocol: Figure 4 Comparative analysis of the effect of 2TX and TXn on Fpg/Nei DNA glycosylases. Enzyme activities were measured as described in the Figure 1 legend using 0.1 nM of a 5′-[^32P]-24-mer DNA duplex containing either an 8-oxoG opposite C for LlFpg or a […] (DHU) opposite G for hNeil1 and mvNei1. The DNA probe was incubated with the indicated protein concentration and 0.2 mM TXn compounds in the presence or absence of 1 mM dithiothreitol (DTT) and TCEP (a representative experiment is illustrated by the upper histograms). […]
The DNA binding activity was measured using EMSA [37]. […] After electrophoresis, the gels were dried and exposed overnight for autoradiography using a Typhoon imager and quantified with ImageQuant software. To evaluate the inhibitor effect of 2TX/TXn on the DNA binding activity of each Fpg/Nei enzyme, we first determined the experimental conditions required to bind 50% of the DNA probes without an inhibitor in the presence of 8% DMSO (limiting enzyme concentration). […] This effect was determined by the addition of the thio-compound in the pre-equilibrium mixture of the enzyme and DNA probe (30 min) and incubated for an additional 30 min at 4 °C. For the best inhibitors of Fpg, a dose-response curve was established from at least three independent experiments and the IC50 was determined (IC50^B, Table 1).

In the next series the target is T4, LlFpg (Lactococcus lactis subsp. cremoris, UniProt P42371).
T4 construct: made in house; host or cells: E. coli BH540 (fpg defective)
As to the kind of experiment: LlFpg 8-oxoG-DNA glycosylase/AP lyase activity assay (Urea-PAGE radioassay). In kind it is biochemical. Particulars: catalytic activity at 37 °C; compound stock (redox mixture) in DMSO; 20 nM 8-oxoG:C 24-mer, 2 nM LlFpg; read-out: IC50app^A (Fpg/Nei enzyme catalysis) LlFpg. Here is the method:
Figure 1 Effect of 2-thioxanthine (2TX)-derivatives on Fpg activity. A total of 20 nM of 5′-[^32P]-8-oxoG-containing 24-bp DNA duplex (labeled on the damaged strand) was incubated with 2 nM of LlFpg alone (dimethyl sulfoxide (DMSO) control) or with the indicated 2TX and 2TX-derivatives (TXn) concentrations, as described in the “Materials and Methods” section. (a) Screening of TXn for Fpg inhibition. Averages and standard deviations were obtained from at least three independent experiments. Mono- and di-thiolated compounds are highlighted in red and blue, respectively. (b) Dose-response curves for best inhibitors. Each data point represents the mean value obtained from at least three independent measurements.
as §2

Setting [7] is: 1 mM TCEP (DTT to a lesser extent), Figure 4.

T3 sequence (Q5UQ00 whole entry): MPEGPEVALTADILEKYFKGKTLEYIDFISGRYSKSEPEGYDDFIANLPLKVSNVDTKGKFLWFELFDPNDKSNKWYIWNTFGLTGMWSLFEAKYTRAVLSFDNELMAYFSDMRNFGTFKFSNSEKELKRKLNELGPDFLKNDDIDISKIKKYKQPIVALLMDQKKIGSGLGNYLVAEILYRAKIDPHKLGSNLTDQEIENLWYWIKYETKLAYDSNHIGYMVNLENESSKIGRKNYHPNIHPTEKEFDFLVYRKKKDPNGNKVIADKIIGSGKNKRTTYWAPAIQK
Chain of ∆hNeil1 (truncated hNeil1) (human) (Q96FI4 whole entry, the tested form may be a part): as the sequence (Q96FI4 whole entry) above

As to “CTCTTTNTTTCTCG / GCGAGAAACAAAGA [14-mer THF:C]”, the K half in series [1] is 7 nM; in the series on mvNei1 (mimivirus) it was 5 nM; in series [2] it was 0.25 nM.

Regarding `O=c1[nH]c2[nH]c(=S)[nH]c(=S)c2[nH]1` [TX16], the “effect on hNeil1 DNA binding activity” value on hNeil1 [3] was “apparent inhibitory effects”. In addition, at hNeil1 [4] (0.2 mM compound, Figure 4), the “effect on hNeil1 catalytic activity” value is on record as “apparent inhibitory effects”. For the same compound, the “inhibition of hNeil1 DNA binding and catalytic activities in the presence of TCEP” value on hNeil1 [4] (setting [7]) was “suppressed”. Besides, the IC50 on hNeil1 [4] (catalytic activity at 37 °C, compound stock in DMSO, DHU:G 24-mer, read-out: IC50app^A (Fpg/Nei enzyme catalysis) hNEIL1) was determined as 21 ± 1 µM; on mvNei1 [5] (catalytic activity at 37 °C, compound stock in DMSO, DHU:G 24-mer, read-out: IC50app^A (Fpg/Nei enzyme catalysis) mvNEI1), 14 ± 1 µM; on LlFpg, 41 ± 7 µM. Moreover, at mvNei1 [5] (0.2 mM compound, Figure 4), the “effect on mvNei1 catalytic activity” value was “apparent inhibitory effects”. Further, the “inhibition of mvNei1 DNA binding and catalytic activities in the presence of TCEP” value on mvNei1 [5] (setting [7]) is “suppressed”. For the same compound, the “effect on mvNei1 DNA binding activity” value at mvNei1 [6] was “apparent inhibitory effects”.
